Test results from patent US5041460A, “Heter-aliphatic carboxamides” (ICI Americas Inc., priority 1989, dated 1991).
pKi: −log10 of the molar value.

Target: T1, LTD4 /E4 receptors (Cavia porcellus, UniProt Q2NNR5)
T1 construct: membrane fractions, containing the LTD4 /E4 receptors, are prepared from guinea-pig lung parenchyma; from tissue; host or cells: guinea-pig lung parenchyma membrane fractions
T1 sequence (Q2NNR5 1-340): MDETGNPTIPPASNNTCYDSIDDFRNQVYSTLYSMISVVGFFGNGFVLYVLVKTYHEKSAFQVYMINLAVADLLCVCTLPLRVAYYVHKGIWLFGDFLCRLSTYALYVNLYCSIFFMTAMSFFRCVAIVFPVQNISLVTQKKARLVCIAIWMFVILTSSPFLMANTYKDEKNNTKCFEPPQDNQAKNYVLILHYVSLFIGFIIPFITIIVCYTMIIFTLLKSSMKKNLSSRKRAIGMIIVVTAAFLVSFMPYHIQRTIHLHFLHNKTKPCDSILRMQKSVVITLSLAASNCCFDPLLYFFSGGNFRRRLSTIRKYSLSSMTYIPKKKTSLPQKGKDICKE
Test: receptor-ligand binding assay, 3H-LTD4 on guinea-pig lung parenchyma membrane fractions
Conditions: 1 nM 3H-LTD4, 30 minutes at 22° C.; Ki calculated from IC50 by the Cheng-Prusoff equation
Method: According to this procedure, membrane fractions, containing the LTD4 /E4 receptors, are prepared from guinea-pig lung parenchyma and incubated for 30 minutes at 22° C. with 1 nM ^3 H-LTD4 in the absence or presence of tested antagonist. Specific binding, determined under conditions that prevent enzymatic metabolism of ^3 H-LTD4, is the net result of total ^3 H-LTD4 binding minus nonspecific binding determined in the presence of […] excess unlabelled LTD4. Each assay is done in duplicate and results (Ki values) are typically a mean of several such determinations in individual receptor batches.
The % inhibition by a tested antagonist, relative to control binding (vehicle alone), is expressed as a […] of log[antagonist] concentration (in molar units) and the half-maximal inhibition (IC50) determined by computerized non-linear least-square analysis. The binding constant (Ki) is then calculated from IC50 by the Cheng-Prusoff equation: [formula] where [L] is ^3 H-LTD4 concentration and Kd is the affinity constant of LTD4 to this receptor, determined separately for each batch. (Biochem. Pharmacol. 22: 3099-3108, 1973).

pKi: 9.00
SMILES: COc1cc(C(=O)NS(=O)(=O)c2ccccc2C)ccc1Cc1cn(C)c2ccc(CCNC(=O)N(C)C)cc12 [Example 4, 4-[5-[2-(N',N'-Dimethylureido)ethyl]-1-methylindol-3-ylmethyl]-3-methoxy-N-(2-methylphenylsulfonyl)benzamide]
